# Source: US5789444A, “Method of reducing glutamate neurotoxicity with anthranilic acid derivatives” (Washington University, priority 1996, dated 1998)
# “Also recorded” adds a separate entry of the source.
# Assays:
# [1] = system: NMDA-induced neurotoxicity, mouse cortical cultures; assay: NMDA-mediated excitotoxicity in mixed cortical cultures (neuronal injury by LDH release); format: cell-based
# Protocol: (§1) Cell Culture: Mixed cortical cultures containing both neuronal and glial elements were prepared from fetal mice at 15 day gestation as previously described (Hewett et al., 1993). Glia were plated in Primaria (Falcon) 15 mm multiwell vessels in modified Eagle's medium (MEM, Earle's salts), with 2 mM glutamine, 25 mM glucose, 10% fetal bovine serum, 10% horse serum, and 10 ng/ml epidermal growth factor. Dissociated cortical cells were plated (2.75 hemispheres/10 ml/plate) in a similar medium (with only 5% fetal bovine serum and 5% horse serum) on an established bed of glia (15-30 days in vitro). All cultures were kept at 37° C. in a humidified 5% CO2 -containing atmosphere. After 3-7 days in vitro, glial cell division was halted by 2 days of exposure to 10 μM cytosine arabinoside. Cells were subsequently shifted into maintenance medium which was identical to the plating medium, but lacked fetal bovine serum. The medium was changed twice weekly. Experiments were performed on cortical cultures after 14 days in vitro.
# Drug Exposure: Cells were exposed to NMDA for 5 min either alone or in the presence of test compound at room temperature in a HEPES controlled salt solution (HCSS), containing (mM): NaCl, 120; KCl, 5.4; MgCl2, 0.8; CaCl2, 1.8; HEPES, 20; glucose, 15, and glycine, 0.01 (pH 7.4). The exposure solution was then washed away and replaced by MEM (Earle's salts) supplemented with glycine (0.01 mM) and the cells returned to the incubator for 20-24 hr.
# Since the neurotoxicity of NMDA preparations can vary from lot to lot, the concentration of NMDA used was determined empirically in a separate benchmarking test. Cells were exposed as described above to increasing concentrations of NMDA, and neuronal injury is assessed as described below. A dose/response curve is plotted, and a concentration which induces death in 50-70% of the neuronal population after 24 hours is used as the test concentration for evaluating compounds as neuroprotective drugs.
# Assessment of Neuronal Cell Injury: Neuronal cell death was estimated by examination of cultures under phase-contrast microscopy, and quantified by measurement of lactate dehydrogenase (LDH) released by damaged or destroyed cells into the bathing medium one day following experimentation (Koh, J. Y. and Choi, D. W., 1987). The LDH signal corresponding to near-complete neuronal death was determined by assaying the supernatant of sister cultures which were exposed to 500 μM NMDA for 24 hr in MEM supplemented with 10 μM glycine. Background LDH levels (generally <15% of total neuronal) were determined in sister cultures subjected to sham wash and subtracted from the levels in experimental conditions to yield the LDH signal specific to experimental injury.
# Mouse cortical cultures were exposed for 5 min to NMDA (100 μM) alone or in the presence of increasing concentrations of meclofenamate sodium, as described under Experimental Procedures, above. Values represent the mean LDH±SEM (n=5-7) scaled to the mean LDH found in control injury (=100).
# Mouse cortical cultures were exposed, as described in Example 1, for 5 min to solutions containing increasing concentrations of NMDA or NMDA plus 300 μM meclofenamate. LDH activity was assessed 20-24 hr later. Data are expressed as the percentage of total LDH released (mean ±SEM; n=10). Total LDH was determined by assaying the supernatant of sister cultures which were incubated with 500 μM NMDA for 24 hr. An asterisk indicates difference form untreated controls as determined by repeated measures Analysis of Variance ("ANOVA") followed by Bonferroni's t-test for multiple comparisons (p<0.01).
# Cells were exposed to NMDA (100-200 μM) (as described previously) both in the presence and absence of cyclooxygenase/lipooxygenase inhibitors. Data represents the mean LDH±SEM scaled to the mean LDH found in control injury (NMDA alone=100). Data were analyzed via ANOVA followed by Dunnett's t-test for multiple comparisons.
# NMDA receptor = assay: Whole-cell recording of NMDA current in cortical neurons; format: cell-based, mouse
# Protocol: Electrophysiological Recording: NMDA current was recorded at room temperature (25° C.) from DIV 12-20 cortical neurons plated on 35 mm dishes using whole-cell recording (EPC-7, List-Electronic, Germany) under voltage clamp. The data acquisition program, PULSE (HEKA Electronic, Germany), was used to control the voltage clamp, to monitor and to collect current and voltage data on a Macintosh computer (Quatra 950, Apple Computer Corp., USA). The extracellular solution contained (mM): NaCl, 145; KCl, 3; MnCl2, 2; CaCl2, 2; glycine, 0.01; HEPES, 10; TTX, 0.005 and glucose, 5. The recording electrode's internal solution contained (mM) CsCl, 150, ATP-Na, 2, BAPTA, 0.5 and HEPES, 10. All solutions were adjusted to pH 7.3 by Tris buffer. NMDA (100 μM) in the extracellular solution was delivered to the cell by a multi-channel DAD drug delivery system (Adams and List Inc., New York.) To eliminate dilution of drug, meclofenamate was added to the bath medium and NMDA was delivered in an extracellular solution containing the same concentration of drug.
# Ten min prior to NMDA (100 μM) application, mouse cortical cells were treated with 300 μM meclofenamate. NMDA current was recorded using whole cell recording techniques. To eliminate dilution of drug, NMDA was delivered to the cell in a solution containing the same concentration of drug as that in the bath.
# [2] = system: NMDA-induced 45Ca2+ influx; assay: 45Ca2+ accumulation during NMDA exposure in cortical cultures; format: cell-based, mouse; details: NMDA 300 μM, 5 min, increasing concentrations, n=18, FIG. 4
# Protocol: ^45 Ca^2 + accumulation: Mouse cortical cultures were washed with HCSS and then exposed to NMDA (300 μM) alone or in the presence of increasing concentrations of meclofenamate in HCSS containing a trace amount of ^45 Ca^2+ (0.5 μCi/well; NEN, Boston, Mass.). After 5 min the exposure solution was washed out with four rinses of HCSS (750 μl each) and the cells were lysed by addition of 0.2% sodium dodecyl sulfate (SDS) at 37° C. An aliquot of cell lysate was estimated by β-counting.
# Mouse cortical cultures were exposed, as in Example 1, for 5 min to NMDA (300 μM) alone or NMDA plus increasing concentrations of meclofenamate in the presence of extracellular ^45 Ca^2+. Values are expressed as mean ±SEM (n=18).
# [3] = system: voltage-gated calcium channels; assay: KCl-stimulated influx of calcium (fura-2 fluorescence videomicroscopy); format: cell-based, mouse; details: meclofenamate 300 μM, 60 mM KCl, 5 min; FIG. 5
# Protocol: as §1, with “The medium was changed twice weekly. Experiments were performed on cortical cultures after 14 days in vitro.” left out
# Cytosolic Calcium Measurements: Intracellular free calcium was measured using fura-2 fluorescence videomicroscopy. […] Background fluorescence was measured from a cell free region of the coverslip at the end of each experiment and subtracted from each 340 and 380 image. […]
# Cells were exposed for 5 minutes, as in Example 1, to 60 mM KCl in the presence and absence of meclofenamate (300 μM). Intracellular free calcium [Ca^2 +]i was measured using fura-2 fluorescence videomicroscopy.
# [4] = system: focal cerebral ischemia, Long Evans male rats; assay: Induced focal cerebral ischemia (MCAO) with reperfusion, cortical infarct volume; format: in vivo, rat
# Protocol: Surgical MCAO occlusion: Focal cerebral ischemia, confined to the cerebral cortex in the right middle cerebral artery territory (MCA) of Long Evans male rats (250-350 g; Charles Rivers, Wilmington, Del.), was induced by temporary ligation of the MCA and both common carotid arteries (CCAs) as described by Chen et al., 1986. The rectal temperature was monitored and maintained at 37.0°±0.5° C. via an electronic temperature controller (Versa-Therm 2156, Cole-Parmer, Chicago, Ill.) linked to a heating lamp. Physiological parameters including plasma blood glucose, arterial blood pressure, and pulse rate were monitored as described previously and maintained within normal range (Liu et al, 1989). Reperfusion was initiated by releasing arterial occlusion affecting all 3 vessels after 90 min of ischemia. Restoration of blood flow in all three arteries was observed directly under the microscope. Rats were treated i.p. with vehicle (control) or meclofenamate (10 mg/kg, i.p.) 15 min before ischemia.. The cortical infarct volume was morphometrically measured after triphenyl tetrazolium chloride stain 24 hr after MCAO.
# 31 rats underwent middle cerebral artery occlusion (MCAO) followed by reperfusion. Fourteen rats underwent MCAO alone while 17 rats were given intraperitoneal meclofenamate (10 mg/kg) 15 minutes prior to 90 min MCAO.
# [5] = system: lipoxygenase/cyclooxygenase; details: conclusion of prior studies; cited from earlier work
# [6] = system: cyclooxygenase and lipoxygenase metabolites; assay: RIA measurements of lipid breakdown products following NMDA exposure; format: cell-based; details: data not shown
# lipid catabolism = details: known; cited from earlier work
# [7] = Mus musculus, compound 300 μM, NMDA 100-200 μM, mean LDH±SEM, asterisk = significantly different from control, read-out: LDH, % of control (NMDA alone=100)
compound,measurement,setting,value
CCCCCC#CCC#CCC#CCC#CCCCC(=O)O [ETYA],activity at 300 µM,[1]; [7],85.1 ± 6.2%
O=C1CCN(c2ccccc2)N1 [Phenidone],activity at 300 µM,[1]; [7],58.1 ± 6.7%
Cc1ccc(Cl)c(Nc2ccccc2C(=O)O)c1Cl [Meclofenamate],NMDA current,"NMDA receptor; 300 μM, 10 min prior to NMDA (100 μM), whole-cell, FIG. 3",failed to alter the current elicited by application of NMDA
same,NMDA receptor antagonism,NMDA receptor; electrophysiological and radiotracer flux measurements,not an NMDA receptor antagonist
same,NMDA-induced 45Ca2+ influx / uptake,[2],did not significantly affect uptake at any concentration tested
same,NMDA-induced 45Ca2+ influx / uptake,[2]; listed as meclofenamate,not significantly altered
same,elevation of intracellular calcium produced by KCl stimulation,[3],no effect on the elevation of intracellular calcium produced by KCl stimulation
same,cortical infarct volume,"[4]; 10 mg/kg i.p. 15 min prior to 90 min MCAO, 24 hr, control 144.8±8.8, p<0.002",99.2±9.2 mm^3
same,neuroprotection in animal model of cerebral ischemia,"[4]; in vivo, summary in words",neuroprotective
same,lipoxygenase/cyclooxygenase inhibition,[5],dual lipoxygenase/cyclooxygenase inhibitor
same,formation of cyclooxygenase and lipoxygenase metabolites,[6],able to block formation of both cyclooxygenase and lipoxygenase metabolites
same,activity at 300 µM,[1]; [7],10.8 ± 5.1%
same,neuronal injury (LDH release),"[1]; given at the same time as NMDA (100 μM, 5 min), increasing concentrations, FIG. 1",dose-dependently decreased neuronal injury
same,protective effect against NMDA receptor-mediated neurotoxicity,"[1]; in vitro, summary in words, listed as meclofenamate sodium",powerful protective effect; also recorded: neuroprotective
same,neuroprotection over a full concentration-toxicity curve for NMDA,"[1]; meclofenamate 300 μM, FIG. 2",Complete neuroprotection
same,inhibition of lipid catabolism,lipid catabolism,inhibitor of lipid catabolism
COc1ccc2cc([C@H](C)C(=O)O)ccc2c1 [naproxen],activity at 300 µM,[1]; [7],82.5 ± 7.1%
O=c1ccc2cc(O)c(O)cc2o1 [Esculetin],activity at 300 µM,[1]; [7],117 ± 17.1%
CC(Cc1ccc(O)c(O)c1)C(C)Cc1ccc(O)c(O)c1 (stereo not drawn) [NDGA],activity at 30 µM,"[1]; Mus musculus, compound 30 μM, NMDA 100-200 μM, mean LDH±SEM, read-out: LDH, % of control (NMDA alone=100)",101 ± 11%
CCCCCCCCC#CCC#CCC#CCCCC(=O)O [ETI],"LDH, % of control (NMDA alone=100)","[1]; compound 300 μM, NMDA 100-200 μM, mean LDH±SEM, asterisk = significantly different from control",107 ± 13.0%
CC(C)Cc1ccc(C(C)C(=O)O)cc1 (stereo not drawn) [ibuprofen],activity at 100 µM,"[1]; Mus musculus, compound 100 μM, NMDA 100-200 μM, mean LDH±SEM, asterisk = significantly different from control, read-out: LDH, % of control (NMDA alone=100)",65.4 ± 3.5%
